Experimental data taken from ChEMBL document CHEMBL1201862, “PubChem BioAssay data set” (2004).
Activity calls are given as the source filed them.

How the values were obtained:
[1] = antiviral protection against BTV-induced cell death – arbovirus, BSR cells, confirmation (AID 1250); assay type: functional;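 also: protection from viral cytopathic effect measured as cell viability by ATP luminescence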
HEK293 [2] = assay: cells; assay type: functional, cell-based; conditions: Homo sapiens
[3] = target: ATP-dependent molecular chaperone HSP82 (Candida albicans (strain WO-1) (Yeast), UniProt C4YTQ8); assay: steroid-induced GRE reporter decrease in yeast – S. cerevisiae, luminescence, Hsp90 inhibitor project, dose response (AID 2400); assay type: functional, cell-based;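 also: beta-galactosidase luminescence from glucocorticoid response element reporter as proxy for Hsp90 function; inhibitor potency where signal loss means Hsp90 inhibition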
HEK293 [4] = assay: cells; assay type: functional, cell-based; conditions: Homo sapiens; remark: listed apart in the source
HEK293 [5] = assay: NOD2 signaling inhibitors in MDP-stimulated cells, cell-based, uHTS, luminescence (AID 2001); assay type: functional; conditions: Homo sapiens
HEK293 [6] = assay: cells; assay type: functional, cell-based; conditions: Homo sapiens; remark: listed apart in the source
HEK293 [7] = assay: cells; conditions: Homo sapiens
HEK293 [8] = assay: inhibition of NOD1-driven NF-kB reporter – cell-based, luminescence, uHTS, primary screen (AID 1578); assay type: functional; conditions: Homo sapiens
[9] = fluconazole-exposed Candida albicans growth modulators – fluorescence, retest, confirmation (AID 2467); assay type: functional, cell-based
[10] = NIH-3T3 fibroblast cytotoxicity, dose response, cytotoxicity control, cell-based, fluorescence, Alamar Blue, secondary assay (AID 2327); assay type: functional;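 also: NIH-3T3 mouse fibroblasts cultured with fluconazole at 8 µg/mL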
[11] = non-specific 3'UTR reporter inhibition in Clone20-Shn3RL – cell-based, Renilla luciferase, cherry-picked, counter-screen for Shn3 inhibitor project, dose response (AID 624133); assay type: functional
Tumor necrosis factor = Tumor necrosis factor (Homo sapiens, UniProt P01375); assay: analog potency on TNFa NF-kB signaling – cell-based, revised, SAR follow-up (AID 2337); assay type: functional
[12] = target: T1, Nucleotide-binding oligomerization domain-containing protein 1 (Homo sapiens, UniProt Q9Y239); assay: blockers of NOD1 pathway activity – revised, SAR follow-up (AID 2333); assay type: functional
T1 sequence (Q9Y239 whole entry): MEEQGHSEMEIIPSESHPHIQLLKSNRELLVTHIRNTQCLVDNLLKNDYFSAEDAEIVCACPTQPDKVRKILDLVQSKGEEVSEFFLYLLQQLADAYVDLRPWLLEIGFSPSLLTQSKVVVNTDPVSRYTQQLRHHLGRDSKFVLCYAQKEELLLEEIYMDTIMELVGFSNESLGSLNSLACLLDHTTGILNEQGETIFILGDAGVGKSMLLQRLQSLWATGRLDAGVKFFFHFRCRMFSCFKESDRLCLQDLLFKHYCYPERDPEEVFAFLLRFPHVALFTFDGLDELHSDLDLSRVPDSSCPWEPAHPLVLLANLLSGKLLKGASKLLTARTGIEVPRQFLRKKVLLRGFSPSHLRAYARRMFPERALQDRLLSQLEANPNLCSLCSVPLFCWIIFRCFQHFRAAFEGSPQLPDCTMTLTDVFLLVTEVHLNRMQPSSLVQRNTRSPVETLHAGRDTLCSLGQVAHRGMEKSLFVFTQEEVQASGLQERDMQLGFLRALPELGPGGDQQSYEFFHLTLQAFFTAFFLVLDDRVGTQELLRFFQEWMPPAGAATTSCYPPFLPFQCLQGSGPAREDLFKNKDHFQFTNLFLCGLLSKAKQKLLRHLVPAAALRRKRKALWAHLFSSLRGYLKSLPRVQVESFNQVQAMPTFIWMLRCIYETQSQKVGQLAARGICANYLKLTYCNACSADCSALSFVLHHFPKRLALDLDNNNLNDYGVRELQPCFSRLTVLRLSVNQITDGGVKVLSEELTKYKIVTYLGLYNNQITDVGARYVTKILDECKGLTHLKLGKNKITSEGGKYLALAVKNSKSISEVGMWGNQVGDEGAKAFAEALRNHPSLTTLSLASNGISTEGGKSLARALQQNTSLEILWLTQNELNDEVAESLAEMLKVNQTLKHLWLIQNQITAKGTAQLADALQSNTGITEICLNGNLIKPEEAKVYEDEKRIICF

[13] = loss of viability in HepG2 cells – cell-based, CellTiter-Glo, cherry-picked, cytotoxicity control for Shn3 inhibitor project, dose response (AID 624134); assay type: functional
[14] = reduction of Shn3 3'UTR-driven luciferase in osteoblasts – cell-based, Clone20 osteoblasts, firefly luciferase, cherry-picked, dose response (AID 624132); assay type: functional;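 also: firefly luciferase luminescence from reporter carrying the Shn3 3'UTR in osteoblasts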
[15] = target: Nucleotide-binding oligomerization domain-containing protein 2 (Homo sapiens, UniProt Q9HC29); assay: inhibition of NOD2-driven NF-kB reporter – cell-based, luminescence, uHTS, HEK293 (AID 1566); assay type: functional
[16] = target: T2, Serine/threonine-protein phosphatase (Candida dubliniensis (strain CD36 / CBS 7987 / NCPF 3949 / NRRLY-17841) (Yeast), UniProt B9W6M3); assay: blockers of CaCl2-induced CDRE-lacZ signaling – S. cerevisiae, luminescence, secondary, dose response (AID 2388); assay type: functional, cell-based;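 also: yeast reporter cells carrying a calcineurin-responsive lacZ construct stimulated with calcium chloride; luminescent beta-galactosidase reporter signal in whole cells rather than isolated phosphatase activity; potency for inhibition where a drop in reporter signal means calcineurin blockade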
T2 sequence (B9W6M3 whole entry): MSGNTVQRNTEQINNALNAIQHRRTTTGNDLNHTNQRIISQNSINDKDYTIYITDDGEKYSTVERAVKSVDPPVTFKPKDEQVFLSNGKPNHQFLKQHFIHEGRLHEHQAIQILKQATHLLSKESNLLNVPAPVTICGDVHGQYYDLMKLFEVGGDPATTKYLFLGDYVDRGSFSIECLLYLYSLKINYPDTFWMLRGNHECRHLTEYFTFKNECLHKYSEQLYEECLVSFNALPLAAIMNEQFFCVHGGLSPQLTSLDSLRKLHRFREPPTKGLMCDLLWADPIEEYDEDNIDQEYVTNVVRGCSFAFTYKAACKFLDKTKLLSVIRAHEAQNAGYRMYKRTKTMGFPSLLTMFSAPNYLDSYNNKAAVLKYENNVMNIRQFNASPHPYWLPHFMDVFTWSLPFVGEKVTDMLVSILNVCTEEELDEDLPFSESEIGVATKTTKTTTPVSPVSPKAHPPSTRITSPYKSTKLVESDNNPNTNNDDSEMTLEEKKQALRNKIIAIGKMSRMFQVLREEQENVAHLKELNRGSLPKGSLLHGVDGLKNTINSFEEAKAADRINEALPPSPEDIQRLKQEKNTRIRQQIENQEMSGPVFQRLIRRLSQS

[17] = target: T3, Corticotropin-releasing factor receptor 2/Corticotropin-releasing factor-binding protein (Homo sapiens, UniProt P24387+Q13324); assay: Dose Response confirmation of uHTS hits for small molecule antagonists of the CRF-binding protein and CRF-R2 receptor complex.; assay type: functional; conditions: read-out: IC50_Mean
T3 sequence (Q13324 whole entry): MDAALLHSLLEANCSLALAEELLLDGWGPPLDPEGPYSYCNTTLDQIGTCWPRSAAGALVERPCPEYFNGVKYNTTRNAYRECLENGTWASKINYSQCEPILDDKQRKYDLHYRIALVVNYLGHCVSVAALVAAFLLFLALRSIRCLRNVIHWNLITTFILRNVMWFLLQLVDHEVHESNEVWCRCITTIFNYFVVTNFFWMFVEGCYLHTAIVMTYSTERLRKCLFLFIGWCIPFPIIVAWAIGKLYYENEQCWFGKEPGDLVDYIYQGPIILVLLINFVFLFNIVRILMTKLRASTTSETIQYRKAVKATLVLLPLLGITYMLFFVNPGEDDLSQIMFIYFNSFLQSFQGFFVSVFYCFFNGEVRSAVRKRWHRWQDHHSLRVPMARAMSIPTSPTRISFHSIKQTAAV
T3 sequence (P24387 whole entry): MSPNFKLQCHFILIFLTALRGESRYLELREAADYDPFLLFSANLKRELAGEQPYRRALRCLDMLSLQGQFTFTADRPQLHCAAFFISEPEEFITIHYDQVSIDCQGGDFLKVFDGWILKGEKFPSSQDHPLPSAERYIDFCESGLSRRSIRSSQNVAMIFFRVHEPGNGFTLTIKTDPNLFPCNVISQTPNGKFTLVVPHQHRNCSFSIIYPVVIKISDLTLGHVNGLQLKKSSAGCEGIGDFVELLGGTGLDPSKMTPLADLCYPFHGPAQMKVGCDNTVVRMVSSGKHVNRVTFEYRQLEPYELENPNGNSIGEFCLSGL

[18] = target: T4, Calpain-2 catalytic subunit (Sus scrofa, UniProt P43367); assay: m-calpain protease blockers, concentration series – biochemical, fluorogenic peptide substrate, dose response (AID 1420); assay type: functional
T4 sequence (P43367 whole entry): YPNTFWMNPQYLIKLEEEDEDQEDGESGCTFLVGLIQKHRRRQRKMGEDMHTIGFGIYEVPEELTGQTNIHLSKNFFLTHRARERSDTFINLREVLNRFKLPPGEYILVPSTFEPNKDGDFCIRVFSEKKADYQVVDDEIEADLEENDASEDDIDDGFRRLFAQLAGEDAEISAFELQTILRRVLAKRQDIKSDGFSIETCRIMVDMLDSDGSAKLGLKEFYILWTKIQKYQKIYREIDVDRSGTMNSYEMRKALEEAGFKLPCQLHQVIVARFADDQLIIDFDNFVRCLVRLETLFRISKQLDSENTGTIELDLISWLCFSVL

[19] = target: T3, Corticotropin-releasing factor receptor 2/Corticotropin-releasing factor-binding protein; assay: activators of CRF receptor 2 with binding protein – uHTS hits, confirmation (AID 602473); assay type: functional; conditions: read-out: EC50_Mean
[20] = HEK-293T viability loss after treatment – luminescence, T-cell screen hits, cytotoxicity control for TCR NF-kB inhibitor project, dose response (AID 489026); assay type: functional, cell-based;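 also: cells exposed to compound about 14 hours before the viability readout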
Leucine aminopeptidase = target: T5, Leucine aminopeptidase (Plasmodium falciparum 3D7, UniProt Q8IL11); assay: P. falciparum M17LAP inhibitors, primary screen, biochemical, fluorogenic H-Leu-NHMec substrate, 1536-well (AID 1619); assay type: functional
T5 sequence (Q8IL11 whole entry): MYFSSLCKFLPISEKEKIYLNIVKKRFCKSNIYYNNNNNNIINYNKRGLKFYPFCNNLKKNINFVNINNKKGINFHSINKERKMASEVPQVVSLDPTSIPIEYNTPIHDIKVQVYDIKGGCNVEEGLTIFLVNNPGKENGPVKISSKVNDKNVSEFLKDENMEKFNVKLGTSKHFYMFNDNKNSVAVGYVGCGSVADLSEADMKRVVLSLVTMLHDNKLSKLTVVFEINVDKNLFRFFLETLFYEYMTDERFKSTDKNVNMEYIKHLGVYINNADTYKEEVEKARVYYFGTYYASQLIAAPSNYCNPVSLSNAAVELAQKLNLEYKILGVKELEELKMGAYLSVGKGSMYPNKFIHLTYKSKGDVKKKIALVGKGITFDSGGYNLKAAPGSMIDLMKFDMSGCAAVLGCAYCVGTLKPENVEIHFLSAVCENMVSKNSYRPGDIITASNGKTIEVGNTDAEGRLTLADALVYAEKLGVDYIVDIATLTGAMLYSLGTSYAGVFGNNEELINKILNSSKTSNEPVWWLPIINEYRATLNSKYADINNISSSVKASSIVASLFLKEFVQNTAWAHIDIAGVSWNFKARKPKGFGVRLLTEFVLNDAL

Aspartyl aminopeptidase = target: T6, Aspartyl aminopeptidase (Plasmodium falciparum 3D7, UniProt Q8I2J3); assay: Counterscreen for inhibitors of M1 and M17 aminopeptidases: QFRET-based biochemical high throughput dose response assay for inhibitors of the Plasmodium falciparum M18 Aspartyl Aminopeptidase (PFM18AAP). [Related PubChem assays: 1619 (Screening assay (M17LAP inhibitors).), 1445 (Screening assay (M1AAP inhibitors).)]
T6 sequence (Q8I2J3 whole entry): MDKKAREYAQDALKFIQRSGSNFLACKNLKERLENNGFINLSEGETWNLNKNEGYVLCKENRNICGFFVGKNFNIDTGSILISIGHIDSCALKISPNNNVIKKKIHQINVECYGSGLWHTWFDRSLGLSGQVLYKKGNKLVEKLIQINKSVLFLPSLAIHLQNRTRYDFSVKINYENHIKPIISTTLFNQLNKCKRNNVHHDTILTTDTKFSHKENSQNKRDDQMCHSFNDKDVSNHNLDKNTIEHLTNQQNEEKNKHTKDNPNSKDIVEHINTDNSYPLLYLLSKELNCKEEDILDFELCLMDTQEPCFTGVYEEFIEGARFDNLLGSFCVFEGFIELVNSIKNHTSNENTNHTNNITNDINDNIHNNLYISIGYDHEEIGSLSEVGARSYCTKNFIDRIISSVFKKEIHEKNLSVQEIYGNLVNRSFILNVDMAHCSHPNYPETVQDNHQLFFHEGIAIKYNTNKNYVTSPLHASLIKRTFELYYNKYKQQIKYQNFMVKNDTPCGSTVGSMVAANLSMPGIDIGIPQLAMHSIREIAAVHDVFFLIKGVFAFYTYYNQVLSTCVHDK

Procathepsin L = Procathepsin L (Homo sapiens, UniProt P07711); assay: CTSL1 protease inhibition – biochemical, QFRET, 1536-well, counter-screen for M1/M17 aminopeptidase inhibitor project, dose response (AID 2214)
Chain of Procathepsin L (P07711 whole entry): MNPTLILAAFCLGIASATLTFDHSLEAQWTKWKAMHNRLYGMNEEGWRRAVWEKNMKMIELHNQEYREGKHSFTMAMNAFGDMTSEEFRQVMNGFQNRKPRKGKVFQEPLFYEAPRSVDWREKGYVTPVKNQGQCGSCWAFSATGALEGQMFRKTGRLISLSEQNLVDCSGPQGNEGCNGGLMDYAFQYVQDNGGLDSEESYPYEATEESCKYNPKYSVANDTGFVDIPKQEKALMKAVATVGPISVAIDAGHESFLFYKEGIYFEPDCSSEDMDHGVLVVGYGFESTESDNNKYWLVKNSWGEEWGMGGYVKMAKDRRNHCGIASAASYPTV

Chain of Tumor necrosis factor (P01375 whole entry, the tested form may be a part): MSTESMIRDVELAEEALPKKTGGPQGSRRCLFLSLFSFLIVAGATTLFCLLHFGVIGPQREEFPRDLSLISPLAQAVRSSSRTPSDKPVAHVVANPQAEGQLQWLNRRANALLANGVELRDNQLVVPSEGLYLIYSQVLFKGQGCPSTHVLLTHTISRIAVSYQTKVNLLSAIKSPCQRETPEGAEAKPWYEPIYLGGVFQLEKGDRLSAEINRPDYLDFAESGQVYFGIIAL
Chain of ATP-dependent molecular chaperone HSP82 (C4YTQ8 whole entry): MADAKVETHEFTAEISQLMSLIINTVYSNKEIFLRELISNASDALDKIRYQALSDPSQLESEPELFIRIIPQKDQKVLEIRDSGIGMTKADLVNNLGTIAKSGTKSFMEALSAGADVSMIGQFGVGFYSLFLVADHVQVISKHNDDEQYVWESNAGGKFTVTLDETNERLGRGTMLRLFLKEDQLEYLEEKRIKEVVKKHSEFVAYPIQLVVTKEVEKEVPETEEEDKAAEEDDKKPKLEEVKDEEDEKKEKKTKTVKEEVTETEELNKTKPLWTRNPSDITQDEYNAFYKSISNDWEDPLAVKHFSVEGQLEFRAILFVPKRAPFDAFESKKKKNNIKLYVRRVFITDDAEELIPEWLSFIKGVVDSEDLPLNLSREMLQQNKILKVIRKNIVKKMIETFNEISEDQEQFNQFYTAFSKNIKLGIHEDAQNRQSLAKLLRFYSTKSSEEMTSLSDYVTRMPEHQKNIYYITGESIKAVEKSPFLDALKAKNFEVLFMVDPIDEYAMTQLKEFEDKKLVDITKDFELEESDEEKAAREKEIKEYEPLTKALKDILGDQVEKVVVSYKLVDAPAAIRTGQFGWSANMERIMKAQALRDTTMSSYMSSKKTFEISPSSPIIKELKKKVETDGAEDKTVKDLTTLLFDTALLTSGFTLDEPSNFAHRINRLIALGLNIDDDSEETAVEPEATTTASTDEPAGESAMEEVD
Chain of Nucleotide-binding oligomerization domain-containing protein 2 (Q9HC29 whole entry, the tested form may be a part): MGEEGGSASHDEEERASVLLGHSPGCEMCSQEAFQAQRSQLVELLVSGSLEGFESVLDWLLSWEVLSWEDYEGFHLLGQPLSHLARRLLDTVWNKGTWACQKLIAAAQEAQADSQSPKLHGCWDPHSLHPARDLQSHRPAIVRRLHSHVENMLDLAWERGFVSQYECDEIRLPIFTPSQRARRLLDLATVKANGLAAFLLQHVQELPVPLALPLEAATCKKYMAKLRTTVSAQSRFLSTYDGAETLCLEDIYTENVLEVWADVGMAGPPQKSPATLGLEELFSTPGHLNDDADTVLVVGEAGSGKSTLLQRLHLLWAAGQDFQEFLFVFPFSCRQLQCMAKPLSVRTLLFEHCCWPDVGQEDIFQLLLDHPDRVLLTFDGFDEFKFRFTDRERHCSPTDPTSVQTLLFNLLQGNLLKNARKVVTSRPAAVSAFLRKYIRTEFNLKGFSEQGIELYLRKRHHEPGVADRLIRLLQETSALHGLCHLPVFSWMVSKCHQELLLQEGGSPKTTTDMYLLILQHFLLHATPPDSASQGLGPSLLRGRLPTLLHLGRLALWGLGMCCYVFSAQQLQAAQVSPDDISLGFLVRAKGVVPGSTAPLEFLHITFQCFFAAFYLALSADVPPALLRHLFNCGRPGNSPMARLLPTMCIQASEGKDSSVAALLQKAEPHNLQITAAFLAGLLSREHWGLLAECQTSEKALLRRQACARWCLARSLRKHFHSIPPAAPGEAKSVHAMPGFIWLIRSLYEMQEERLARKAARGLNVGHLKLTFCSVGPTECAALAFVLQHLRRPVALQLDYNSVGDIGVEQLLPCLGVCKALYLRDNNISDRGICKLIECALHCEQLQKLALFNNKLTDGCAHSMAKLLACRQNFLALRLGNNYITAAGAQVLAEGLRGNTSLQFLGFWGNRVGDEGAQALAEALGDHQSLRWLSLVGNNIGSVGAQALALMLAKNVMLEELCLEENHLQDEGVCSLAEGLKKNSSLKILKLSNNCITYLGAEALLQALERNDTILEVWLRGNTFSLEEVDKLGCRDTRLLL

## CC1CCCCN1c1nnc(NC(=O)c2cc(-c3ccc(Br)cc3)on2)s1 (stereo unspecified)
[1]
  IC50: 29 µM (active)

## O=C(c1ccc(Cn2c(=S)[nH]c3ccccc3c2=O)cc1)N1CCN(c2ccccn2)CC1
HEK293 [2]
  IC50: > 20 µM (inactive)
[3]
  EC50: > 150 µM (inactive)
HEK293 [4]
  IC50: 13.9 µM (active)
HEK293 [5]
  IC50: 7.1 µM (active)
HEK293 [6]
  IC50: 6.05 µM (active)
HEK293 [7]
  IC50: 12.6 µM (active)
HEK293 [8]
  EC50: 9 µM (active)
[9]
  EC50: 0.549 µM (active)
[10]
  EC50: 12.4 µM (inconclusive)
[11]
  AC50: 31.4 µM (active)
Tumor necrosis factor
  IC50: 7.61 µM (active)
[12]
  IC50: 5.3 µM (active)
[13]
  AC50: 59.2 µM (active)
[14]
  AC50: 6.34 µM (active)
[15]
  EC50: 5.49 µM (active)
[16]
  EC50: > 180 µM (inactive)

## O=C(Nc1ccc(Oc2cccnc2)nc1)c1ccc(C(F)(F)F)cc1
HEK293 [2]
  IC50: > 20 µM (inactive)
HEK293 [5]
  IC50: 8.57 µM (active)
HEK293 [6]
  IC50: 4.32 µM (active)
HEK293 [7]
  IC50: > 20 µM (inactive)
HEK293 [8]
  EC50: 2.4 µM (active)
[17]
  IC50: > 47.1 µM (inactive)
[18]
  IC50: 48.1 µM (not active)
[19]
  EC50: > 53 µM (inactive)
Tumor necrosis factor
  IC50: 2.79 µM (active)
[12]
  IC50: 2.26 µM (active)
[20]
  IC50: > 80 µM (inactive)

## O=C(CSc1nccc(=O)[nH]1)Nc1ccc(F)c(Cl)c1
Leucine aminopeptidase
  IC50: 6.03 µM (active)
Aspartyl aminopeptidase
  IC50: > 73.5 µM (not active)
Procathepsin L
  IC50: > 59.6 µM (not active)
